Values belong to the molecule of their own block, whether it stands above or below them.
Experiments:
HT‐29 cells = test: Cell growth inhibition assay (Crystal Violet); format: cell-based, human; conditions: HT‐29 colorectal adenocarcinoma cells, 72 h incubation, mean ± SD of three independent experiments
Experimental: (§1) The capability of the gold(III) complexes Au1‐5, the gold(I)‐phosphine derivatives AuP1‐5, and the gold(I)‐carbene counterparts AuC1‐5 to inhibit cell proliferation was assayed on three human tumor cell lines, namely, colorectal adenocarcinoma (HT‐29), metastatic breast adenocarcinoma (MDA‐MB‐231), and breast adenocarcinoma (MCF‐7) cells, whereas human non‐malignant kidney epithelial (RC‐124) cells were used as non‐tumor reference cell line. […]
(§2) high-glucose Dulbecco’s Modified Eagle’s Medium (4.5 g L-1 D-glucose, 4 mM L-glutamine, 1 mM sodium pyruvate, 1.5 g L-1 sodium bicarbonate; Life Technologies). […]
(§3) Cells were cultured at 37°C in 5% CO2 and moisture-enriched atmosphere in the respective medium […]
(§4) (Biochrom) and passaged once a week. […]
(§5) Cell growth inhibition assay
(§6) Stock solutions of the gold(III) complexes Au1-5, and the gold(I) complexes AuP1-5 and AuC1-5 in DMF were freshly prepared and subsequently diluted with the appropriate complete cell culture medium […]
(§7) The in vitro antiproliferative activity of the various gold complexes was determined following a modified protocol previously reported.[68] 100 µL of HT-29 cells (2.5×10^3 cells mL-1), MDA-MB-231 cells […]
(§8) in 96-well cell culture plates and incubated at 37°C in 5% CO2 humidified atmosphere (note: for RC-124, pre-treated plates were used as mentioned above). After 72 h (MDA-MB-231, MCF-7, RC-124) or 48 h (HT-29), cells were treated with the test compounds at different concentrations (0.01-50 µM) and incubated for further 72 h (HT-29) or 96 h (MDA-MB-231, MCF-7, RC-124) at 37°C. The medium was then discarded, cells were washed with fresh PBS solution and harvested, and the Crystal Violet (Sigma-Aldrich/Merck) staining assay was performed to determine cell viability. The inhibition of cell growth induced by the tested compounds was assessed by measuring the absorbance of each well at 590 nm using a Victor X4 microplate reader (Perkin Elmer). Antiproliferative data are expressed as IC50 values, that is, the concentration (μM) of the test agent inhibiting cell proliferation by 50% compared with untreated […]
(§9) control cultures. […]

MDA‐MB‐231 cells = test: Cell growth inhibition assay (Crystal Violet); format: cell-based, human; conditions: MDA‐MB‐231 metastatic breast adenocarcinoma cells, 96 h incubation, mean ± SD of three independent experiments
Experimental: as §1, §2, §3, §4, §5, §6, §7, §8, §9

MCF‐7 cells [1] = test: Cell growth inhibition assay (Crystal Violet); format: cell-based, human; conditions: MCF‐7 breast adenocarcinoma cells, 96 h incubation, mean ± SD of three independent experiments
Experimental: as §1, §2, §3, §4, §5, §6, §7, §8, §9

[2] = Stability in PBS by UV–Vis; format: physicochemical; conditions: PBS pH 7.4, 37°C, 25 μM, UV–Vis over time
Experimental: DMSO and DMF are solvents commonly used to prepare stock solutions of metal complexes prior to performing biological studies, especially if poorly soluble in aqueous media. […] However, to mimic a physiological‐like environment, stability studies in phosphate‐buffered saline (PBS) solution at pH 7.4 and 37°C were carried out for the various gold complexes by UV–Vis spectrophotometry.

[3] = system: HT‐29, MDA‐MB‐231 and MCF‐7 cells; test: Cell growth inhibition, stated over all tested tumor cell lines; format: cell-based, human; conditions: HT‐29, MDA‐MB‐231, MCF‐7
Experimental: as §1, §2, §3, §4
Cell growth inhibition assay […]
(§10) The in vitro antiproliferative activity of the various gold complexes was determined following a modified protocol previously reported.[68] […]
in 96-well cell culture plates and incubated at 37°C in 5% CO2 humidified atmosphere (note: for RC-124, pre-treated plates were used as mentioned above). […] The inhibition of cell growth induced by the tested compounds was assessed by measuring the absorbance of each well at 590 nm using a Victor X4 microplate reader (Perkin Elmer). […]

RC‐124 cells = test: Cell growth inhibition assay (Crystal Violet), non-tumor reference; format: cell-based, human; conditions: RC‐124 non‐malignant kidney epithelial cells, 96 h incubation, mean ± SD of three independent experiments
Experimental: as §1
Human non-malignant kidney epithelial (RC-124) cells were maintained in McCoy’s 5A Medium (modified to contain 1.5 mM L-glutamine and 2.2 g L-1 sodium bicarbonate; Life Technologies).
as §3
(Biochrom) and passaged once a week.
For experiments involving RC-124 cells, microtiter plates were pre-treated as follows. 30 µL of a 1.5% m/v sterilized gelatine solution were added to each well of flat-bottomed 96-well plates, plates were covered with their lids and incubated for 1 h at 37°C. The excess solution was then removed, wells were washed with PBS solution (pH 7.4), and new cell culture medium was added.
as §5, §6, §7, §8, §9

MCF‐7 cells [4] = test: Cellular uptake of gold (HR‐CS AAS); format: cell-based, human; conditions: 10 μM, 6 h
Experimental: It is often assumed that the antiproliferative activity of gold complexes is strongly linked to the efficiency of their cellular uptake and internalization. Moreover, glycoconjugates are commonly believed to enter cells through GLUTs, which, as discussed earlier, are generally over‐expressed in several cancer cells. In particular, GLUT1 is crucial for the uptake of glucose by breast cancer cells, including MDA‐MB‐231 and MCF‐7.^[ [70] ^] […] The gold levels were determined by high‐resolution continuum‐source atomic absorption spectroscopy (HR‐CS AAS) after exposure to 10 μM concentration of the selected compounds over 6 h using either a high‐glucose‐contents or glucose‐free cell culture medium. […]
as §10
in 96-well cell culture plates and incubated at 37°C in 5% CO2 humidified atmosphere (note: for RC-124, pre-treated plates were used as mentioned above). […] The inhibition of cell growth induced by the tested compounds was assessed by measuring the absorbance of each well at 590 nm using a Victor X4 microplate reader (Perkin Elmer). […] Results were calculated as the mean values ± standard deviation (SD) of three […]

Structure (SMILES): CO[C@H]1O[C@H](CO)[C@@H](O)[C@H](O)[C@H]1NC(=O)C1CCN(C(=S)[S][Au][PH](c2ccccc2)(c2ccccc2)c2ccccc2)CC1 [AuP4, [Au^I(SSC‐Inp‐GlcN2)(PPh3)]]
IC50 (HT‐29 cells): 6.3 ± 0.5 µM | IC50 (MDA‐MB‐231 cells): 2.4 ± 0.7 µM | IC50 (MCF‐7 cells [1]): 2.4 ± 0.4 µM

Structure (SMILES): CCOC(=O)C1CCN(C(=S)[S][Au][PH](c2ccccc2)(c2ccccc2)c2ccccc2)CC1 [AuP1, [Au^I(SSC‐Inp‐OEt)(PPh3)]]
IC50 (HT‐29 cells): 0.5 ± 0.1 µM | IC50 (MDA‐MB‐231 cells): 0.6 ± 0.2 µM | IC50 (MCF‐7 cells [1]): 0.2 ± 0.1 µM

Structure (SMILES): CCn1[c]([Au-][S]C(=S)N2CCC(C(=O)N[C@H]3[C@@H](OC)O[C@H](CO)[C@@H](O)[C@@H]3O)CC2)[n+](CC)c2ccccc21 [AuC4, [Au^I(SSC‐Inp‐GlcN2)(Et2BzImy)]]
IC50 (HT‐29 cells): 11.3 ± 0.4 µM | IC50 (MDA‐MB‐231 cells): 10.5 ± 0.4 µM | IC50 (MCF‐7 cells [1]): 10.3 ± 0.3 µM

Structure (SMILES): CCn1[c]([Au-][S]C(=S)N2CCC(C(=O)NC[C@H]3O[C@H](OC)[C@H](O)[C@@H](O)[C@@H]3O)CC2)[n+](CC)c2ccccc21 [AuC5, [Au^I(SSC‐Inp‐GlcN3)(Et2BzImy)]]
Stability in PBS [2]: major spectral changes occur soon after dissolution | IC50 (HT‐29 cells): 11.8 ± 1.1 µM | IC50 (MDA‐MB‐231 cells): 9.6 ± 1.5 µM | IC50 (MCF‐7 cells [1]): 10.6 ± 0.6 µM

IC50 values over the tested tumor cell lines [3]: low micromolar range
Structure (SMILES): CCOC(=O)C1CCN(C2=[S+][Au-]([Br])([Br])[S]2)CC1 [Au1, [Au^IIIBr2(SSC‐Inp‐OEt)]]
IC50 (RC‐124 cells): 0.6 ± 0.1 µM | IC50 (HT‐29 cells): 1.2 ± 0.2 µM | IC50 (MDA‐MB‐231 cells): 1.4 ± 0.2 µM | IC50 (MCF‐7 cells [1]): 0.8 ± 0.1 µM

Structure (SMILES): NC(=O)C1CCN(C(=S)[S][Au][PH](c2ccccc2)(c2ccccc2)c2ccccc2)CC1 [AuP2, [Au^I(SSC‐Inp‐NH2)(PPh3)]]
IC50 (HT‐29 cells): 2.9 ± 0.7 µM | IC50 (MDA‐MB‐231 cells): 1.4 ± 0.3 µM | IC50 (MCF‐7 cells [1]): 1.3 ± 0.1 µM

Structure (SMILES): CO[C@H]1O[C@H](CO)[C@@H](O)[C@H](O)[C@H]1NC(=O)C1CCN(C2=[S+][Au-]([Br])([Br])[S]2)CC1 [Au4, [Au^IIIBr2(SSC‐Inp‐GlcN2)]]
Gold uptake in glucose‐ and Cytochalasin B‐free medium versus conditions with glucose, Cytochalasin B, or both (MCF‐7 cells [4]; not statistically significant): slightly higher | IC50 (RC‐124 cells): 48.2 ± 13.2 µM | IC50 (HT‐29 cells): > 50 µM | IC50 (MDA‐MB‐231 cells): > 50 µM | IC50 (MCF‐7 cells [1]): > 50 µM

Structure (SMILES): CO[C@H]1O[C@H](CNC(=O)C2CCN(C3=[S+][Au-]([Br])([Br])[S]3)CC2)[C@@H](O)[C@H](O)[C@H]1O [Au5, [Au^IIIBr2(SSC‐Inp‐GlcN3)]]
IC50 (RC‐124 cells): 18.8 ± 1.7 µM | IC50 (HT‐29 cells): > 50 µM | IC50 (MDA‐MB‐231 cells): > 50 µM | IC50 (MCF‐7 cells [1]): > 50 µM

Structure (SMILES): CO[C@H]1O[C@H](CNC(=O)C2CCN(C(=S)[S][Au][PH](c3ccccc3)(c3ccccc3)c3ccccc3)CC2)[C@@H](O)[C@H](O)[C@H]1O [AuP5, [Au^I(SSC‐Inp‐GlcN3)(PPh3)]]
IC50 (HT‐29 cells): 6.7 ± 1.1 µM | IC50 (MDA‐MB‐231 cells): 2.5 ± 0.5 µM | IC50 (MCF‐7 cells [1]): 2.5 ± 0.4 µM

Structure (SMILES): CCn1[c]([Au-][S]C(=S)N2CCC(C(=O)NC3C(O)OC(CO)C(O)C3O)CC2)[n+](CC)c2ccccc21 (mixture of isomers) [AuC3, [Au^I(SSC‐Inp‐GlcN1)(Et2BzImy)]]
IC50 (HT‐29 cells): 22.7 ± 1 µM | IC50 (MDA‐MB‐231 cells): 11.5 ± 0.6 µM | IC50 (MCF‐7 cells [1]): 12.3 ± 1.4 µM

Structure (SMILES): CCOC(=O)CN(C)C(=S)[S][Au]=[c]1n(CC)c2ccccc2n1CC [AuC1, [Au^I(SSC‐Sar‐OEt)(Et2BzImy)]]
IC50 (RC‐124 cells): 0.6 ± 0.1 µM | IC50 (HT‐29 cells): 1 ± 0.1 µM | IC50 (MDA‐MB‐231 cells): 0.8 ± 0.1 µM | IC50 (MCF‐7 cells [1]): 0.5 ± 0.1 µM

IC50 values over the tested tumor cell lines [3]: low micromolar range
Structure (SMILES): NC(=O)C1CCN(C2=[S+][Au-]([Br])([Br])[S]2)CC1 [Au2, [Au^IIIBr2(SSC‐Inp‐NH2)]]
Gold content (intracellular gold) (MCF‐7 cells [4]; with or without glucose (4.5 g L^−1) and with or without Cytochalasin B 50 μM): consistently similar cellular uptake values | IC50 (RC‐124 cells): 9.9 ± 0.8 µM | IC50 (HT‐29 cells): 20.1 ± 0.1 µM | IC50 (MDA‐MB‐231 cells): 8.9 ± 1.1 µM | IC50 (MCF‐7 cells [1]): 5.1 ± 1 µM

Structure (SMILES): O=C(NC1C(O)OC(CO)C(O)C1O)C1CCN(C(=S)[S][Au][PH](c2ccccc2)(c2ccccc2)c2ccccc2)CC1 (mixture of isomers) [AuP3, [Au^I(SSC‐Inp‐GlcN1)(PPh3)]]
IC50 (HT‐29 cells): 8.8 ± 1.6 µM | IC50 (MDA‐MB‐231 cells): 2.4 ± 0.8 µM | IC50 (MCF‐7 cells [1]): 2.6 ± 0.4 µM

Structure (SMILES): CCn1[c]([Au-][S]C(=S)N2CCC(C(N)=O)CC2)[n+](CC)c2ccccc21 [AuC2, [Au^I(SSC‐Inp‐NH2)(Et2BzImy)]]
IC50 (HT‐29 cells): 6.4 ± 1.3 µM | IC50 (MDA‐MB‐231 cells): 4.7 ± 0.3 µM | IC50 (MCF‐7 cells [1]): 4.9 ± 0.6 µM

Structure (SMILES): O=C(NC1C(O)OC(CO)C(O)C1O)C1CCN(C2=[S+][Au-]([Br])([Br])[S]2)CC1 (mixture of isomers) [Au3, [Au^IIIBr2(SSC‐Inp‐GlcN1)]]
IC50 (RC‐124 cells): > 50 µM | IC50 (HT‐29 cells): > 50 µM | IC50 (MDA‐MB‐231 cells): > 50 µM | IC50 (MCF‐7 cells [1]): > 50 µM
